Square brackets hold non-standard residues; d marks the D form. dDab = NCC[C@@H](N)C(=O)O; Orn = NCCC[C@H](N)C(=O)O; Dab = NCC[C@H](N)C(=O)O
Test system: Pseudomonas aeruginosa clinical isolate PA18298
Assay: Murine pneumonia model, compound 1 in combination with amikacin (Example 4)
Format: in vivo
Settings: murine lungs
Protocol: The efficacy and ED50 of the compound of formula (I) (“compound 1”) in combination with amikacin was determined against Pseudomonas aeruginosa clinical isolate PA18298 in a pneumonia model in mice. Colony counts in lung were determined at 20 hours post treatment.
Fresh overnight colonies of PA18298 from a 5% Horse Blood Agar plate were suspended in 0.9% sterile saline to approximately 10^8 CFU/ml and further diluted to approximately 5×10^7 CFU/ml. Female mice (DBA/2, outbred, 18-22 g, Charles River) were anesthetized with 0.1 ml of Zoletil and inoculated via the nose with a pipette with 0.05 ml of the bacteria suspension containing approximately 10^6 CFU. 4 hours after inoculation, the mice were treated orally with 45 μl neurophen (20 mg ibuprofen/ml corresponding to approximately 30 mg/kg) as pain relief.
175 mg of amikacin (Sigma) were dissolved in 5 ml 0.9% sterile saline to a concentration of 35 mg/ml and further diluted with saline to 3 mg/ml. The mice were treated subcutaneously with 0.2 ml in the neck region with a single dose at 3 hours post infection corresponding to 30 mg/kg on the basis of a mean animal weight of 20 g.
One vial containing 10 mg of active compound 1 was dissolved in 2 ml 0.9% sterile saline to a concentration of 5 mg/ml and further diluted with saline […], 1, 0.55, 0.275 and 0.137 mg/ml. The mice were treated subcutaneously with 0.2 ml in the neck region with a single dose at 4 hours post infection with a dose calculation based on a mean animal weight of 20 g. Colistin was used as a control in the same manner with a fixed dose of 20 mg/kg.
Colony counts were determined post inoculation at 4 hours (untreated mice) and 24 hours (treated and vehicle-only treated mice). Immediately after the mice were sacrificed, the lungs were collected and frozen at −20° C. After thawing, the organs were homogenized in 1 ml 0.9% saline. Each sample was then 10 fold diluted in saline and 20 μl spots were applied on blood agar plates. All agar plates were incubated 18-24 hours at 35° C. in ambient air.
The CFU/ml in the inoculum was determined to 7.4 log10 CFU/ml corresponding to 6.17 log10 CFU/mouse.
At 4 hours after inoculation the mean log 10 CFU/lung was 5.06 and the CFU level declined to 1.55 mean log 10 CFU/lung after 24 hours in the vehicle group.

[1] = in presence of 30 mg/kg amikacin

Q: What does the source list for “cyclo(TWI[Dab][Orn][dDab][Dab]W[Dab][Dab]AS[dP]P) [compound 1]”?
A: Top level (compound 1 s.c. in presence of 30 mg/kg amikacin (s.c., 3 h post infection)): −3.03 log10 CFU/ml; Bottom level [1]: −3.82 log10 CFU/ml; Emax [1]: 0.79 log10 CFU/ml; ED50 (in presence of fixed dose of 30 mg/kg amikacin): 9.1 mg/kg

Source: US9814754B2, “Combinations with a backbone-cyclized peptide” (POLYPHOR AG, priority 2012, dated 2017)
